What was measured:
Details in all cases: treatment: drug alone; 5 days
TK-10 [1] = assay: AUC of dose-response viability curve, drug alone (arbitrary (AUC of normalised viability)); higher = less growth inhibition
Method: (§1)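 Primary HTS: 8 RCC cell lines treated with 8 doses (up to 10 uM) of each library drug alone for 5 days; viability read by CellTiter-Glo and normalised to DMSO. GI50 was fitted with XLfit (4-parameter), AUC is the area under the dose-response curve, and minimum viability is the lowest fraction of DMSO viability across doses.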

786-O [2] = assay: as above
Method: as §1

CAKI-1 [3] = assay: as above
Method: as §1

ACHN [4] = assay: as above
Method: as §1

769-P [5] = assay: as above
Method: as §1

A498 [6] = assay: as above
Method: as §1

SN12C [7] = assay: as above
Method: as §1

UO-31 [8] = assay: as above
Method: as §1

TK-10 [9] = assay: GI50, drug alone; higher = less potent
Method: as §1

786-O [10] = assay: GI50, drug alone; higher = less potent
Method: as §1

CAKI-1 [11] = assay: GI50, drug alone; higher = less potent
Method: as §1

ACHN [12] = assay: GI50, drug alone; higher = less potent
Method: as §1

769-P [13] = assay: GI50, drug alone; higher = less potent
Method: as §1

A498 [14] = assay: GI50, drug alone; higher = less potent
Method: as §1

SN12C [15] = assay: GI50, drug alone; higher = less potent
Method: as §1

UO-31 [16] = assay: GI50, drug alone; higher = less potent
Method: as §1

TK-10 [17] = assay: minimum viability across doses, drug alone, relative to DMSO (fraction); higher = less growth inhibition
Method: as §1

786-O [18] = assay: as above
Method: as §1

CAKI-1 [19] = assay: as above
Method: as §1

ACHN [20] = assay: as above
Method: as §1

769-P [21] = assay: as above
Method: as §1

A498 [22] = assay: as above
Method: as §1

SN12C [23] = assay: as above
Method: as §1

UO-31 [24] = assay: as above
Method: as §1

GI50, drug alone (786-O [10])	GI50, drug alone (ACHN [12])	Compound	AUC of dose-response viability curve (TK-10 [1])	AUC of dose-response viability curve (786-O [2])	AUC of dose-response viability curve (CAKI-1 [3])	AUC of dose-response viability curve (ACHN [4])	AUC of dose-response viability curve (769-P [5])	AUC of dose-response viability curve (A498 [6])	AUC of dose-response viability curve (SN12C [7])	AUC of dose-response viability curve (UO-31 [8])	GI50, drug alone (TK-10 [9])	GI50, drug alone (CAKI-1 [11])	GI50, drug alone (769-P [13])	GI50, drug alone (A498 [14])	GI50, drug alone (SN12C [15])	GI50, drug alone (UO-31 [16])	minimum viability across doses (TK-10 [17])	minimum viability across doses (786-O [18])	minimum viability across doses (CAKI-1 [19])	minimum viability across doses (ACHN [20])	minimum viability across doses (769-P [21])	minimum viability across doses (A498 [22])	minimum viability across doses (SN12C [23])	minimum viability across doses (UO-31 [24])
0.0233 µM	0.123 µM	COc1cc(OC)c(/C=C/S(=O)(=O)Cc2ccc(OC)c(NCC(=O)[O][Na])c2)c(OC)c1	2.13	0.88	1.63	1.7	1.49	1.91	2.01	1.46	0.327 µM	0.0743 µM	0.0821 µM	0.0912 µM	0.216 µM	0.0855 µM	0.273	0.00295	0.119	0.102	0.0669	0.154	0.124	0.0069
6.69 µM	0.582 µM	COc1cc2ncnc(Nc3cccc(Br)c3)c2cc1OC.Cl	2.36	2.81	2.92	2.07	2.36	4.63	3.17	4.18	1.36 µM	8.68 µM	1.49 µM	> 10 µM	> 10 µM	6.95 µM	0.181	0.00889	0.378	0.268	0.357	0.923	0.825	0.0153
< 0.003 µM	4.72 µM	CNC(=O)c1ccc(C)c(-n2c(C)cc(OCc3ccc(F)cc3F)c(Br)c2=O)c1	2.51	1.88	3.1	2.53	3.15	4.54	2.94	3.74	> 10 µM	> 10 µM	> 10 µM	> 10 µM	> 10 µM	> 10 µM	0.596	0.437	0.705	0.464	0.765	1.12	0.738	0.835
0.21 µM	2.59 µM	CN(c1ncccc1CNc1nc(Nc2ccc3c(c2)CC(=O)N3)ncc1C(F)(F)F)S(C)(=O)=O.O=S(=O)(O)c1ccccc1	2.8	1.79	3.34	2.86	3.06	3.68	2.94	3.81	4.46 µM	5.15 µM	4.89 µM	7.73 µM	3.88 µM	4.55 µM	0.132	0.00443	0.0631	0.0138	0.0576	0.018	0.0169	0.0117

From the supplement of paper PMC8149375
